Molecular target: T1, FGFR3 (Homo sapiens, UniProt P22607)
T1 construct: purchased Thermo Fisher Scientific (Life Technologies) SelectScreen
Test: SelectScreen Z'LYTE
Assay type: biochemical
Method in brief: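 Percent values come from Thermo SelectScreen profiling of NU5455, combining activity and binding assays. CSF1R was run in Z'LYTE format at Km app ATP, and CAMK1 in Adapta format with ATP listed at 10.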

T1 sequence (P22607 23-806): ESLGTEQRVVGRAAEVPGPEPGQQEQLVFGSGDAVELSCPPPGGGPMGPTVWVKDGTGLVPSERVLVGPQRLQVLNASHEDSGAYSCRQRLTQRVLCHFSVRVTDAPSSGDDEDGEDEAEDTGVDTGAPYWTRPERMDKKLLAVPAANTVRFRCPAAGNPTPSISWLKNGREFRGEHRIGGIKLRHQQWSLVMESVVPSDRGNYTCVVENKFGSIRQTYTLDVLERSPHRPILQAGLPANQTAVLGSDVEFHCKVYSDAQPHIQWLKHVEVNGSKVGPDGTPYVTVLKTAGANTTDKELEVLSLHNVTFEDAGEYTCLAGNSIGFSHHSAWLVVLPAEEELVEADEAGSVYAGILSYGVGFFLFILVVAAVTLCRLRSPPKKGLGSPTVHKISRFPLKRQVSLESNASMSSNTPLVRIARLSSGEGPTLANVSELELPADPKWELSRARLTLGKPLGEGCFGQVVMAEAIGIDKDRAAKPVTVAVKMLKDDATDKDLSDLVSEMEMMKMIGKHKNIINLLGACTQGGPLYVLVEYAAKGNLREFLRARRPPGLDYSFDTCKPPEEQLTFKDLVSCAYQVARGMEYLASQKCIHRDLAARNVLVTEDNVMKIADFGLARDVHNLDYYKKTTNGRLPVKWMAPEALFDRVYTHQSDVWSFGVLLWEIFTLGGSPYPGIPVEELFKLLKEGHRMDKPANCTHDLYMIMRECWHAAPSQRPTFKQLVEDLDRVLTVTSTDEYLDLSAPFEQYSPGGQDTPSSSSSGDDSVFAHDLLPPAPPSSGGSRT

With `CN(C(=O)CN1CCOCC1)c1ccc2sc3c(-c4cccc5c(=O)cc(N6CC7CCC(C6)O7)oc45)cccc3c2c1` [NU5455] the inhibition at 1 µM was 0.9%.

Reference: publication PMC6934184, “Selective DNA-PKcs inhibition extends the therapeutic index of localized radiotherapy and chemotherapy” (The Journal of Clinical Investigation, 2019)
